Columns and labels:
Type in all cases: biochemical
cathepsin S = target: T1, cathepsin S (Homo sapiens, UniProt P25774); assay: Cathepsin S enzyme inhibition in vitro (kinetic fluorescence assay); details: recombinant human cathepsin S vs calpain I
T1 construct: purchased Calbiochem 219343; host or cells: E. coli
Method in brief: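 Cathepsin B (0.25 nM, human liver) with 100 μM Z-Phe-Arg-AMC; L (1 nM, human liver) with 2 μM Z-Phe-Arg-AMC; S (0.5 nM, recombinant) with 20 μM Z-Val-Val-Arg-AMC. pH 6.0 MES buffer, 2.5 mM L-cysteine, room temperature. Kinetic fluorescence (ex 390/em 460 nm); apparent Ki from IC50 by Cheng-Prusoff.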

cathepsin K = target: T2, cathepsin K (Homo sapiens, UniProt P43235); assay: Cathepsin K enzyme inhibition in vitro (kinetic fluorescence assay); details: cathepsin K activated from recombinant human procathepsin K vs calpain I
T2 construct: purchased Calbiochem 342001; host or cells: E. coli
T2 sequence (P43235 115-329): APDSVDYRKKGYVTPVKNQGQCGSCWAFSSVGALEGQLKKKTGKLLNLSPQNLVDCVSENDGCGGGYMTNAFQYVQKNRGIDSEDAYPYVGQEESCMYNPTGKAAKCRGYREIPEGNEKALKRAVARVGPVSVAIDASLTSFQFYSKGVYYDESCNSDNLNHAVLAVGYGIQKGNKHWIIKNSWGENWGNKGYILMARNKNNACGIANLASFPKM
Experimental: (§1) The following solutions and buffers were employed: • HBS (for 40 ml): 800 μl M HEPES; 2.16 ml 100 mM KCl; 4.8 ml 1M NaCl; 3.59 ml 5% glucose; 60 μl μM MgSO4; 400 μl 100 mM Na pyruvate, 28.19 ml water; pH 7.2-7.5. • lysis buffer (for 20 ml): 400 μl M Tris pH 8.2; 2.74 ml 1M NaCl; 520 μl 0.5M EDTA; 2 ml 10% triton X-100; 0.8 ml (=1:25) CompletePlus (1 tablet/2 ml H2O); 200 μl 100 mM Pefabloc; 13.34 ml water, pH 8.2. • TBST (10×) (for 1 l): 100 mM Tris (12.1 g); 1.5M NaCl (87 g); 1% Tween 20 (10 g), adjusted to pH 8. I Enzyme Inhibition In Vitro: • Testing for blockade of the corresponding enzymic activities was carried out by means of kinetic fluorescence assays (excitation 390 nm, emission 460 nm). • Apparent Ki values were calculated from the experimentally determined IC50 values by the Cheng-Prussoff relation assuming a reversible competitive enzyme inhibition. The Km values of the substrates used under the assay conditions indicated above were: 90 μM (Z-Phe-Arg-AMC, cathepsin B), 10 μM (Z-Gly-Pro-Arg-AMC, cathepsin K), 2 μM (Z-Phe-Arg-AMC, cathepsin L), and 30 μM (Z-Val-Val-Arg-AMC, cathepsin S). • The indicated Ki values are averages of the inhibition constants calculated on the basis of 2 to 4 independent dose-effect plots.
(§2) The following assays were used: • 1. Calpain I: • 20 nM calpain-I—isolated from human erythrocytes (Calbiochem #208713), 100 μM Suc-Leu-Tyr-AMC (Bachem #1-1355) as substrate in buffer with 62 mM imidazole, 0.3 mM CaCl2, 0.10% CHAPS, 0.05% BSA, 1 mM DTT at pH 7.3 and room temperature. • 2. Cathepsin B: • 0.25 nM cathepsin B—isolated from human liver (Calbiochem #219362), 100 μM Z-Phe-Arg-AMC (Bachem #I-1160) as substrate 50 mM MES, 2 mM EDTA, 0.05% Brij 35, 2.5 mM L-cysteine, pH 6.0, room temperature. • 3. Cathepsin K: • 3 nM cathepsin K—activated from recombinant human procathepsin K from E. coli (Calbiochem #342001), 10 μM Z-Gly-Pro-Arg-AMC (Biomol #P-142) as substrate in 50 mM MES, 2 mM EDTA, 0.05% Brij 35, 2.5 mM L-cysteine, pH 6.0, room temperature. • 4. Cathepsin L: • 1 nM cathepsin L—isolated from human liver (Calbiochem #219402), 2 μM Z-Phe-Arg-AMC (Bachem #1-1160) as substrate in 50 mM MES, 2 mM EDTA, 0.05% Brij 35, 2.5 mM L-cysteine, pH 6.0, room temperature. • 5. Cathepsin S: • 0.5 nM recombinant human cathepsin S from E. coli (Calbiochem #219343), 20 μM Z-Val-Val-Arg-AMC (Bachem #1-1540) as substrate in 50 mM MES, 2 mM EDTA, 0.05% Brij 35, 2.5 mM L-cysteine, pH 6.0, room temperature. • The results of the in vitro determination are indicated in Table 1. The following abbreviations are used in Table 1: • The “Calpain activity” column, ++ stands for a calpain Ki (Ki(calpain)) of ≦40 nM and + means: 40 nM<Ki(Calpain)≦100 nM. • The “Sel. cat. B” column indicates the Ki(cathepsin B)/Ki(calpain) ratio. In this connection, ++ means a Ki(cathepsin B)/Ki(calpain) ratio of ≧30 and + means 10≦Ki(cathepsin B)/Ki(calpain)<30. • The “Sel. cat. K” column indicates the Ki(cathepsin K)/Ki(calpain) ratio. In this connection, ++ means a Ki(cathepsin K)/Ki(calpain) ratio of ≧30 and + means 10≦Ki(cathepsin K)/Ki(calpain)<30. • The “Sel. cat. L” column indicates the Ki(cathepsin L)/Ki(calpain) ratio. In this connection, ++ means a Ki(cathepsin L)/Ki(calpain) ratio of ≧50 and + means 30≦Ki(cathepsin L)/Ki(calpain)<50. • The “Sel. cat. S” column indicates the Ki(cathepsin S)/Ki(calpain) ratio. In this connection, ++ means a Ki(cathepsin S)/Ki(calpain) ratio of ≧100 and + means 50≦Ki(cathepsin S)/Ki(calpain)<100.

cathepsin L = target: T3, cathepsin L (Homo sapiens, UniProt P07711); assay: Cathepsin L enzyme inhibition in vitro (kinetic fluorescence assay); details: cathepsin L isolated from human liver vs calpain I
T3 construct: cathepsin L—isolated from human liver (Calbiochem #219402); purchased Calbiochem 219402; host or cells: human liver (tissue-derived)
Experimental: as §1, §2

cathepsin B = target: T4, cathepsin B (Homo sapiens, UniProt P07858); assay: Cathepsin B enzyme inhibition in vitro (kinetic fluorescence assay); details: cathepsin B isolated from human liver vs calpain I
T4 construct: cathepsin B—isolated from human liver (Calbiochem #219362); purchased Calbiochem 219362; host or cells: human liver (tissue-derived)
Experimental: as §1, §2

T1 sequence (P25774 115-331): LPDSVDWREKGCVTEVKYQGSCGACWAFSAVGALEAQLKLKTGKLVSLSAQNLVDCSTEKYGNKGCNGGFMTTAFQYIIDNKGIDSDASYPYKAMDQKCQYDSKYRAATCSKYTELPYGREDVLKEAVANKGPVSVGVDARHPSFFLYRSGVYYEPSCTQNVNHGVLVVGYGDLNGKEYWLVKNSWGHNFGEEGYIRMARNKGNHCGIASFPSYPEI
T3 sequence (P07711 114-333): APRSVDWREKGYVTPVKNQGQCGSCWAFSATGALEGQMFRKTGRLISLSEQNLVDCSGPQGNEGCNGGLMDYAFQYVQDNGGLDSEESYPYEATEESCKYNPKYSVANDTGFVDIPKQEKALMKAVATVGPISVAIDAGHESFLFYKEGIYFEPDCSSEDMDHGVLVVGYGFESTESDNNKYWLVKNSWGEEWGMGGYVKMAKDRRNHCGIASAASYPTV

SMILES	Sel cat. S: Ki(cathepsin S)/Ki(calpain) ratio (cathepsin S)	Sel cat. K: Ki(cathepsin K)/Ki(calpain) ratio (cathepsin K)	Sel cat. L: Ki(cathepsin L)/Ki(calpain) ratio (cathepsin L)	Sel cat. B: Ki(cathepsin B)/Ki(calpain) ratio (cathepsin B)
NC(=O)C(=O)C(Cc1ccccc1)NC(=O)c1cccnc1-n1ccc(C2CCCCC2)n1 (stereo not shown) [Example 192, N-[3-Amino-2,3-dioxo-1-(phenylmethyl)propyl]-2-(3-cyclohexyl-1H-pyrazol-1-yl)pyridine-3-carboxamide]	++ (++ means a Ki(cathepsin S)/Ki(calpain) ratio of ≧100)	+ (+ means 10≦Ki(cathepsin K)/Ki(calpain)<30)	++ (++ means a Ki(cathepsin L)/Ki(calpain) ratio of ≧50)	–
NC(=O)C(=O)C(Cc1ccccc1)NC(=O)c1cccnc1-n1ccc(-c2ccc3c(c2)CCO3)n1 (stereo not shown) [Example 75, N-(3-Amino-1-benzyl-2,3-dioxopropyl)-2-[3-(2,3-dihydrobenzo[b]furan-5-yl)-1H-pyrazol-1-yl]nicotinamide]	++ (++ means a Ki(cathepsin S)/Ki(calpain) ratio of ≧100)	+ (+ means 10≦Ki(cathepsin K)/Ki(calpain)<30)	++ (++ means a Ki(cathepsin L)/Ki(calpain) ratio of ≧50)	–
Cl.NC(=O)C(=O)C(Cc1ccccc1)NC(=O)c1cccnc1-n1ccc(-c2ccc(N3CCOCC3)cc2)n1 (stereo not shown) [Example 29, N-(3-Amino-1-benzyl-2,3-dioxopropyl)-2-[3-(4-morpholin-4-ylphenyl)-1H-pyrazol-1-yl]nicotinamide hydrochloride]	++ (++ means a Ki(cathepsin S)/Ki(calpain) ratio of ≧100)	+ (+ means 10≦Ki(cathepsin K)/Ki(calpain)<30)	++ (++ means a Ki(cathepsin L)/Ki(calpain) ratio of ≧50)	–
NC(=O)C(=O)C(Cc1ccccc1)NC(=O)c1cccnc1-n1ccc(-c2cccc(N3CCCC3)c2)n1 (stereo not shown) [Example 74, N-(3-Amino-1-benzyl-2,3-dioxopropyl)-2-[3-(3-pyrrolidin-1-ylphenyl)-1H-pyrazol-1-yl]nicotinamide]	++ (++ means a Ki(cathepsin S)/Ki(calpain) ratio of ≧100)	++ (++ means a Ki(cathepsin K)/Ki(calpain) ratio of ≧30)	–	++ (++ means a Ki(cathepsin B)/Ki(calpain) ratio of ≧30)
CN1CCN(c2ccc(-c3ccn(-c4ncccc4C(=O)NC(Cc4ccccc4)C(=O)C(N)=O)n3)cc2)CC1 (stereo not shown) [Example 68, N-(3-Amino-1-benzyl-2,3-dioxopropyl)-2-{3-[4-(4-methylpiperazin-1-yl)phenyl]-1H-pyrazol-1-yl}nicotinamide]	++ (++ means a Ki(cathepsin S)/Ki(calpain) ratio of ≧100)	+ (+ means 10≦Ki(cathepsin K)/Ki(calpain)<30)	–	–
NC(=O)C(=O)C(Cc1ccccc1)NC(=O)c1cc(Cl)cnc1-n1ccc(-c2ccc(N3CCOCC3)cc2)n1 (stereo not shown) [Example 31, N-(3-Amino-1-benzyl-2,3-dioxopropyl)-5-chloro-2-[3-(4-morpholin-4-ylphenyl)-1H-pyrazol-1-yl]nicotinamide]	–	+ (+ means 10≦Ki(cathepsin K)/Ki(calpain)<30)	+ (+ means 30≦Ki(cathepsin L)/Ki(calpain)<50)	++ (++ means a Ki(cathepsin B)/Ki(calpain) ratio of ≧30)
COc1ccc(OC)c(-c2ccn(-c3ncccc3C(=O)NC(Cc3ccccc3)C(=O)C(N)=O)n2)c1 (stereo not shown) [Example 151, N-[3-Amino-2,3-dioxo-1-(phenylmethyl)propyl]-2-{3-[2,5-bis(methyloxy)phenyl]-1H-pyrazol-1-yl}pyridine-3-carboxamide]	–	++ (++ means a Ki(cathepsin K)/Ki(calpain) ratio of ≧30)	++ (++ means a Ki(cathepsin L)/Ki(calpain) ratio of ≧50)	++ (++ means a Ki(cathepsin B)/Ki(calpain) ratio of ≧30)
N#Cc1cnc(-n2ccc(-c3ccccc3F)n2)c(C(=O)NC(Cc2ccccc2)C(=O)C(N)=O)c1 (stereo not shown) [Example 188, N-[3-Amino-2,3-dioxo-1-(phenylmethyl)propyl]-5-cyano-2-[3-(2-fluorophenyl)-1H-pyrazol-1-yl]pyridine-3-carboxamide]	–	++ (++ means a Ki(cathepsin K)/Ki(calpain) ratio of ≧30)	++ (++ means a Ki(cathepsin L)/Ki(calpain) ratio of ≧50)	–
NC(=O)C(=O)C(CC1CCCCC1)NC(=O)c1cccnc1-n1ccc(-c2ccccc2)n1 (stereo not shown) [Example 66, N-[3-Amino-1-(cyclohexylmethyl)-2,3-dioxopropyl]-2-(3-phenyl-1H-pyrazol-1-yl)nicotinamide]	++ (++ means a Ki(cathepsin S)/Ki(calpain) ratio of ≧100)	+ (+ means 10≦Ki(cathepsin K)/Ki(calpain)<30)	+ (+ means 30≦Ki(cathepsin L)/Ki(calpain)<50)	–
NC(=O)C(=O)C(Cc1ccccc1)NC(=O)c1cccnc1-n1ccc(-c2cccc3cnccc23)n1 (stereo not shown) [Example 156, N-[3-Amino-2,3-dioxo-1-(phenylmethyl)propyl]-2-(3-isoquinolin-5-yl-1H-pyrazol-1-yl)pyridine-3-carboxamide]	++ (++ means a Ki(cathepsin S)/Ki(calpain) ratio of ≧100)	–	+ (+ means 30≦Ki(cathepsin L)/Ki(calpain)<50)	+ (+ means 10≦Ki(cathepsin B)/Ki(calpain)<30)
Cc1cn(-c2ncccc2C(=O)NC(Cc2ccccc2)C(=O)C(N)=O)nc1-c1ccccc1 (stereo not shown) [Example 84, N-(3-Amino-1-benzyl-2,3-dioxopropyl)-2-(4-methyl-3-phenyl-1H-pyrazol-1-yl)nicotinamide]	++ (++ means a Ki(cathepsin S)/Ki(calpain) ratio of ≧100)	–	++ (++ means a Ki(cathepsin L)/Ki(calpain) ratio of ≧50)	+ (+ means 10≦Ki(cathepsin B)/Ki(calpain)<30)

Source: patent US7799809B2, “Carboxamide compounds and their use as calpain inhibitors” (Abbott GmbH & Co. KG, priority 2006, dated 2010)
